Patent publication US20260224688A1, “HELPER LIPIDS FOR NUCLEIC ACID DELIVERY” (SANOFI PASTEUR INC., priority 2023, published 2026)

What was measured:
[1] = Dynamic light scattering of lipid nanoparticles (size, PDI); assay type: physicochemical
Protocol: (§1) Lipid nanoparticle formulations 3 were prepared by Process A at a molar ratio of 40:1.5:30:28.5 (Cationic Lipid: DMG-PEG2000: Cholesterol: Helper Lipid) with the cationic lipids and helper lipids disclosed in the tables below. The Polydispersity Index (Pdl) of lipid nanoparticles can be determined by diluting the formulation in 10% trehalose at about 0.1 mg/ml mRNA concentration and then measuring the size on Malvern zetasizer. The lipid nanoparticle size can be obtained with Malvern Zetasizer Nano-ZS.
Dynamic light scattering (DLS) measurements were performed using a Malvern Instruments Zetasizer with a backscattering detector angle of 173° and a 4-mW, 633-nm He—Ne laser (Worcestershire, UK). The samples were analyzed by diluting in 10% Trehalose and measuring the size and Poly dispersity Index (PDI) in an optical grade polystyrene cuvette.

[2] = mRNA encapsulation efficiency of lipid nanoparticles; assay type: physicochemical; conditions: for Encapsulation efficiency (EE): LNP with cationic lipid CL-A
Excerpt: In embodiments, the lipid nanoparticle encapsulates a nucleic acid, optionally an mRNA encoding a peptide or protein. In embodiments, the lipid nanoparticle encapsulates an mRNA encoding a peptide or protein, optionally for use in a vaccine. In embodiments, the peptide is an antigen. As used herein, the phrase “encapsulation percentage” refers to the fraction of therapeutic agent (e.g. mRNA) that is effectively encapsulated within a liposomal-based vehicle (e.g. a lipid nanoparticle) relative to the initial fraction of therapeutic agent present in the lipid phase. In embodiments, the lipid nanoparticles have an encapsulation percentage for mRNA of at least 50%. In embodiments, the lipid nanoparticles have an encapsulation percentage for mRNA of at least 55%. In embodiments, the lipid nanoparticles have an encapsulation percentage for mRNA of at least 60%. In embodiments, the lipid nanoparticles have an encapsulation percentage for mRNA of at least 65%. In embodiments, the lipid nanoparticles have an encapsulation percentage for mRNA of at least 70%. In embodiments, the lipid nanoparticles have an encapsulation percentage for mRNA of at least 75%. In embodiments, the lipid nanoparticles have an encapsulation percentage for mRNA of at least 80%. In embodiments, the lipid nanoparticles have an encapsulation percentage for mRNA of at least 85%. In embodiments, the lipid nanoparticles have an encapsulation percentage for mRNA of at least 90%. In embodiments, the lipid nanoparticles have an encapsulation percentage for mRNA of at least 95%. In embodiments, the encapsulation percentage is calculated by performing the Ribogreen assay (Invitrogen) with and without the presence of 0.1% Triton-X 100.
The lipid nanoparticles in the examples of the present invention were formulated using Process A of WO 2018/089801 (see, e.g., Example 1 and FIG. 1 of WO 2018/089801). Process A (“A”) relates to a conventional method of encapsulating mRNA by mixing mRNA with a mixture of lipids, without first pre-forming the lipids into lipid nanoparticles. In an exemplary process, an ethanolic solution of a mixture of lipids (cationic lipid, phosphatidylethanolamine, cholesterol, and polyethylene glycol-lipid) at a fixed lipid to mRNA ratio were combined with an aqueous buffered solution of target mRNA at an acidic pH under controlled conditions to yield a suspension of uniform LNPs. After ultrafiltration and diafiltration into a suitable diluent system, the resulting nanoparticle suspensions were diluted to final concentration, filtered, and stored frozen at −80° C. until use.
as §1

[3] = test system: hEPO; assay: IM EPO expression of LNPs containing new helper lipids (hEPO in serum by ELISA); assay type: in vivo, female BALB/cJ mice; conditions: single IM injection; for 24-h EPO: serum 24 hours post injection
Protocol: Lipid nanoparticles were formulated containing the four lipid components shown below at a ratio of 40:30:28.5:1.5, complexed with a hEPO messenger RNA. • Cationic lipid, 40 mol % • Phospholipid (PEA) helper lipid, 30 mol % • Cholesterol, 28.5 mol % • DMG-PEG-2K (1,2-dimyristoyl-rac-glycero-3-methoxypolyethyleneglycol), 1.5 mol % The cationic lipid component of each formulation was selected from the compounds in the table below: […]
EPO expression studies were conducted with female BALB/cJ mice 6-8 weeks of age. Mice were dosed with […] EPO mRNA in 30 μL of LNPs by a single intramuscular (IM) injection into the gastrocnemius leg muscle. Blood samples were taken 6 and 24 hours post injection and hEPO levels were measured in the blood serum of the mice using an ELISA assay according to the manufacture's protocol. WO2022/099003 A1 also describes an in vivo assay for intramuscular administration (e.g. on page 46, paragraph [00206]).

[4] = test system: hEPO; assay: IV EPO expression of LNPs (tail vein injection); assay type: in vivo, female BALB/cJ mice; conditions: cationic lipid CL-0137, helper lipid 30 mol %; 0.017 μg EPO mRNA tail vein; 6 hours; DOPE = 1
Protocol: Lipid nanoparticles were formulated containing the four lipid components shown below at a ratio of 40:30:28.5:1.5, complexed with a hEPO messenger RNA. • Cationic lipid CL-0137, 40 mol % • Helper lipid, 30 mol % • Cholesterol, 28.5 mol % • DMG-PEG-2K (1,2-dimyristoyl-rac-glycero-3-methoxypolyethyleneglycol), 1.5 mol %
EPO expression studies were conducted with female BALB/cJ mice 6-8 weeks of age. Mice were dosed with 0.017 μg EPO mRNA LNPs in a volume of 5 ul by a single tail vein injection. Blood samples were taken 6 hours post injection and hEPO levels were measured in the blood serum of the mice using an ELISA assay according to the manufacture's protocol.

[5] = LNP with cationic lipid CL-A, hEPO mRNA, 40:30:28.5:1.5
[6] = CL-B LNP, serum 6 hours post injection

In the case of `CCCCCCCCOC(=O)CCCCCCCC(=O)OCC(COP(=O)(O)OCCN(C)C)OC(=O)CCCCCCCC(=O)OCCCCCCCC` (stereo not shown) [Compound 7, O′^1,O^1-(3-(((2-(Dimethylamino)ethoxy)(hydroxy)phosphoryl)oxy)-propane-1,2-diyl) 9-dioctyl di(nonanedioate)], the “Polydispersity Index (PDI)” value ([1]; LNP with cationic lipid CL-A) is reported as 0.09, the Size [1, 5] is reported as 120 nm and the PDI ([1]; LNP with cationic lipid CL-B) is reported as 0.111. It also gave a Size ([1]; LNP with cationic lipid CL-B) of 88.2 nm, a PDI ([1]; LNP with cationic lipid CL-C) of 0.099 and a Size ([1]; LNP with cationic lipid CL-C) of 87.4 nm. For the same molecule, the PDI ([1]; LNP with cationic lipid CL-D) was 0.089, the Size ([1]; LNP with cationic lipid CL-D) was 121.9 nm and the “Encapsulation efficiency (EE)” value [2] was 88%. For the same molecule, the EE ([2]; LNP with cationic lipid CL-B) was 92%, the EE ([2]; LNP with cationic lipid CL-C) was 92% and the EE ([2]; LNP with cationic lipid CL-D) was 85%. The “6-h EPO” value [3, 6] was 3.7 ng/mL, the “24-h EPO” value ([3]; CL-B LNP) was 1.4 ng/mL and the “6-h EPO” value ([3]; CL-C LNP) was 2.6 ng/mL. The “6-h EPO” value ([3]; CL-C LNP, (6-h)) was 5.5 ng/mL and the “Normalized Mean IV EPO expression” value [4] was 0.52.

For `CC(C)CCCCOC(=O)CCCCCCC(=O)OCC(COP(=O)(O)OCCN(C)C)OC(=O)CCCCCCC(=O)OCCCCC(C)C` (stereo not shown) [Compound 8, O′^1,O^1-(3-(((2-(Dimethylamino)ethoxy)(hydroxy)phosphoryl)-oxy)propane-1,2-diyl) 8-bis(5-methylhexyl) di(octanedioate)], the “Polydispersity Index (PDI)” value ([1]; LNP with cationic lipid CL-A) was 0.06, the Size [1, 5] was 116 nm and the PDI ([1]; LNP with cationic lipid CL-B) was 0.146. The Size ([1]; LNP with cationic lipid CL-B) was 92.3 nm, the PDI ([1]; LNP with cationic lipid CL-C) was 0.102 and the Size ([1]; LNP with cationic lipid CL-C) was 91.1 nm. For the same molecule, the PDI ([1]; LNP with cationic lipid CL-D) was 0.061, the Size ([1]; LNP with cationic lipid CL-D) was 151.4 nm and the “Encapsulation efficiency (EE)” value [2] was 89%. The EE ([2]; LNP with cationic lipid CL-B) was 18%, the EE ([2]; LNP with cationic lipid CL-C) was 87% and the EE ([2]; LNP with cationic lipid CL-D) was 28%. For the same molecule, the “6-h EPO” value ([3]; CL-C LNP) was 0.5 ng/mL, the “6-h EPO” value ([3]; CL-C LNP, (6-h)) was 1.4 ng/mL and the “Normalized Mean IV EPO expression” value [4] was 0.29.

With `CCCCCCCCCC(CCCCCCCCC)C(=O)OCC(COP(=O)(O)OCCN(C)C)OC(=O)C(CCCCCCCCC)CCCCCCCCC` (stereo not shown) [Compound 9, 3-(((2 (Dimethylamino)ethoxy)(hydroxy)phosphoryl)oxy)-propane-1,2-diyl bis(2-nonylundecanoate)] the “Polydispersity Index (PDI)” value ([1]; LNP with cationic lipid CL-A) was 0.126, the Size [1, 5] was 112 nm and the PDI ([1]; LNP with cationic lipid CL-B) was 0.113. It also gave a Size ([1]; LNP with cationic lipid CL-B) of 108.2 nm, a PDI ([1]; LNP with cationic lipid CL-C) of 0.087 and a Size ([1]; LNP with cationic lipid CL-C) of 110.1 nm. The “Encapsulation efficiency (EE)” value [2] was 84%, the EE ([2]; LNP with cationic lipid CL-B) was 78% and the EE ([2]; LNP with cationic lipid CL-C) was 78%. For the same molecule, the “6-h EPO” value [3, 6] was 5.6 ng/mL, the “24-h EPO” value ([3]; CL-B LNP) was 3.3 ng/mL and the “6-h EPO” value ([3]; CL-C LNP) was 12.2 ng/mL. For the same molecule, the “6-h EPO” value ([3]; CL-C LNP, (6-h)) was 22.3 ng/mL and the “Normalized Mean IV EPO expression” value [4] was 3.68.
